Laboratory results reported in patent US20250154141A1 (University of Florida Research Foundation, Incorporated, priority 2021, published 2025).
Read-outs that look alike come from different tables or passages of the source.

Assays:
MOLT-4 = test: Cell viability assay (MTS) in MOLT-4 cells; assay type: cell-based; settings: Homo sapiens
Description: (§1) Acute lymphoblastic leukemia cells (MOLT-4 and RS4; 11) were incubated with increasing concentrations of Bcl-xL degraders for 48 h. Cell viability was measured by tetrazolium-based MTS assay.

RS4; 11 = test: Cell viability assay (MTS) in RS4; 11 cells; assay type: cell-based; settings: Homo sapiens
Description: as §1

[1] = MOLT-4, Table 2, 48 hr, MTS, read-out: Anti-Cancer Activity IC50 (48 hr) MOLT-4
[2] = MOLT-4, Table 4, 48 h, read-out: MOLT-4 48 h IC50
[3] = RS4-11, Table 2, 48 hr, MTS, read-out: Anti-Cancer Activity IC50 (48 hr) RS4, 11
[4] = RS4-11, Table 4, 48 h, read-out: RS4 48 h IC50
[5] = MOLT-4, 48 h, read-out: Anti-Cancer Activity IC50 (48 hr) MOLT-4
[6] = RS4-11, 48 h, read-out: Anti-Cancer Activity IC50 (48 hr) RS4, 11

IC50 (MOLT-4; [1]) | IC50 (RS4; 11; [3]) | Structure (SMILES) | further results
< 0.02 µM | < 0.02 µM | Cc1ncsc1-c1ccc([C@H](C)NC(=O)[C@@H]2C[C@@H](O)CN2C(=O)[C@@H](NC(=O)CCCCCCC(=O)N2CCN(C[C@]3(C)CCC(c4ccc(Cl)cc4)=C(CN4CCN(c5ccc(C(=O)NS(=O)(=O)c6ccc(N[C@H](CCN7CCCOCC7)CSc7ccccc7)c([N+](=O)[O-])c6)cc5)CC4)C3)CC2)C(C)(C)C)cc1 [Compound 55, (2S,4R)-1-((S)-2-(8-(4-(((R)-6-((4-(4-(((4-(((R)-4-(1,4-oxazepan-4-yl)-1-(phenylthio)butan-2-yl)amino)-3-nitrophenyl)sulfonyl)carbamoyl)phenyl)piperazin-1-yl)methyl)-4′-chloro-4-methyl-2,3,4,5-tetrahydro-[1,1′-biphenyl]-4-yl)methyl)piperazin-1-yl)-8-oxooctanamido)-3,3-dimethylbutanoyl)-4-hydroxy-N—((S)-1-(4-(4-methylthiazol-5-yl)phenyl)ethyl)pyrrolidine-2-carboxamide] | IC50 (MOLT-4; [2]): 0.011 µM; IC50 (RS4; 11; [4]): 0.0032 µM
 |  | Cc1ncsc1-c1ccc([C@H](C)NC(=O)[C@@H]2C[C@@H](O)CN2C(=O)[C@@H](NC(=O)CN2CCN(C(=O)CC(=O)N3CCN(C[C@]4(C)CCC(c5ccc(Cl)cc5)=C(CN5CCN(c6ccc(C(=O)NS(=O)(=O)c7ccc(N[C@H](CCN8CCCOCC8)CSc8ccccc8)c(S(=O)(=O)C(F)(F)F)c7)cc6)CC5)C4)CC3)CC2)C(C)(C)C)cc1 [Compound 115] | IC50 (MOLT-4; [5]): < 0.02 µM; IC50 (RS4; 11; [6]): < 0.02 µM
0.5 to 10 µM | 0.02 to 0.1 µM | Cc1ncsc1-c1ccc([C@H](C)NC(=O)[C@@H]2C[C@@H](O)CN2C(=O)[C@@H](NC(=O)CCCCCCC(=O)N2CCN(C[C@]3(C)CCC(c4ccc(Cl)cc4)=C(CN4CCN(c5ccc(C(=O)NS(=O)(=O)c6ccc(N[C@H](CCN7CCOCC78CC8)CSc7ccccc7)c(S(=O)(=O)C(F)(F)F)c6)cc5)CC4)C3)CC2)C(C)(C)C)cc1 [Compound 92] | 
0.02 to 0.1 µM | < 0.02 µM | Cc1ncsc1-c1ccc([C@H](C)NC(=O)[C@@H]2C[C@@H](O)CN2C(=O)[C@@H](NC(=O)CCCCCOCc2cn(CC3(C)CCC(c4ccc(Cl)cc4)=C(CN4CCN(c5ccc(C(=O)NS(=O)(=O)c6ccc(N[C@H](CCN7CCOCC7)CSc7ccccc7)c(S(=O)(=O)C(F)(F)F)c6)cc5)CC4)C3)nn2)C(C)(C)C)cc1 (stereo partly drawn) [Compound 20, (2S,4R)-1-((2S)-2-(6-((1-((4′-chloro-4-methyl-6-((4-(4-(((4-(((R)-4-morpholino-1-(phenylthio)butan-2-yl)amino)-3-((trifluoromethyl)sulfonyl)phenyl)sulfonyl)carbamoyl)phenyl)piperazin-1-yl)methyl)-2,3,4,5-tetrahydro-[1,1′-biphenyl]-4-yl)methyl)-1H-1,2,3-triazol-4-yl)methoxy)hexanamido)-3,3-dimethylbutanoyl)-4-hydroxy-N—((S)-1-(4-(4-methylthiazol-5-yl)phenyl)ethyl)pyrrolidine-2-carboxamide] | IC50 (MOLT-4; MOLT-4, Table 5, 48 h, read-out: MOLT-4 48 h IC50): 0.0881 µM; IC50 (RS4; 11; RS4-11, Table 5, 48 h, read-out: RS4 48 h IC50): 0.0156 µM
< 0.02 µM | < 0.02 µM | Cc1ncsc1-c1ccc([C@H](C)NC(=O)[C@@H]2C[C@@H](O)CN2C(=O)[C@@H](NC(=O)CCCCCCS(=O)(=O)N2CCN(C[C@]3(C)CCC(c4ccc(Cl)cc4)=C(CN4CCN(c5ccc(C(=O)NS(=O)(=O)c6ccc(N[C@H](CCN7CCCOCC7)CSc7ccccc7)c(S(=O)(=O)C(F)(F)F)c6)cc5)CC4)C3)CC2)C(C)(C)C)cc1 [Compound 96, (2S,4R)-1-((S)-2-(7-((4-(((R)-6-((4-(4-(((4-(((R)-4-(1,4-oxazepan-4-yl)-1-(phenylthio)butan-2-yl)amino)-3-((trifluoromethyl)sulfonyl)phenyl)sulfonyl)carbamoyl)phenyl)piperazin-1-yl)methyl)-4′-chloro-4-methyl-2,3,4,5-tetrahydro-[1,1′-biphenyl]-4-yl)methyl)piperazin-1-yl)sulfonyl)heptanamido)-3,3-dimethylbutanoyl)-4-hydroxy-N—((S)-1-(4-(4-methylthiazol-5-yl)phenyl)ethyl)pyrrolidine-2-carboxamide] | 
< 0.02 µM | < 0.02 µM | Cc1ncsc1-c1ccc([C@H](C)NC(=O)[C@@H]2C[C@@H](O)CN2C(=O)[C@@H](NC(=O)CCCCCCNC(=O)c2ccc(N3CCN(C[C@]4(C)CCC(c5ccc(Cl)cc5)=C(CN5CCN(c6ccc(C(=O)NS(=O)(=O)c7ccc(N[C@H](CCN8C[C@H]9C[C@@H]8CO9)CSc8ccccc8)c(S(=O)(=O)C(F)(F)F)c7)cc6)CC5)C4)CC3)nc2)C(C)(C)C)cc1 [Compound 73] | IC50 (MOLT-4; [2]): 0.0071 µM; IC50 (RS4; 11; [4]): 0.0139 µM
0.02 to 0.1 µM | < 0.02 µM | CCN(CCO)CC[C@H](CSc1ccccc1)Nc1ccc(S(=O)(=O)NC(=O)c2ccc(N3CCN(CC4=C(c5ccc(Cl)cc5)CCC(C)(CN5CCN(C(=O)CCCCCCC(=O)N[C@H](C(=O)N6C[C@H](O)C[C@H]6C(=O)N[C@@H](C)c6ccc(-c7scnc7C)cc6)C(C)(C)C)CC5)C4)CC3)cc2)cc1S(=O)(=O)C(F)(F)F (stereo partly drawn) [Compound 63, (2S,4R)-1-((2S)-2-(8-(4-((4′-chloro-6-((4-(4-(((4-(((R)-4-(ethyl(2-hydroxyethyl)amino)-1-(phenylthio)butan-2-yl)amino)-3-((trifluoromethyl)sulfonyl)phenyl)sulfonyl)carbamoyl)phenyl)piperazin-1-yl)methyl)-4-methyl-2,3,4,5-tetrahydro-[1,1′-biphenyl]-4-yl)methyl)piperazin-1-yl)-8-oxooctanamido)-3,3-dimethylbutanoyl)-4-hydroxy-N—((S)-1-(4-(4-methylthiazol-5-yl)phenyl)ethyl)pyrrolidine-2-carboxamide] | 
0.02 to 0.1 µM | 0.02 to 0.1 µM | Cc1ncsc1-c1ccc([C@H](C)NC(=O)[C@@H]2C[C@@H](O)CN2C(=O)[C@@H](NC(=O)CCCNC(=O)c2ccc(N3CCN(CCN(C)CC4(C)CCC(c5ccc(Cl)cc5)=C(CN5CCN(c6ccc(C(=O)NS(=O)(=O)c7ccc(N[C@H](CCN8CCOCC8)CSc8ccccc8)c(S(=O)(=O)C(F)(F)F)c7)cc6)CC5)C4)CC3)cc2)C(C)(C)C)cc1 (some centres unmarked) [Compound 14] | 
< 0.02 µM | < 0.02 µM | Cc1ncsc1-c1ccc([C@H](C)NC(=O)[C@@H]2C[C@@H](O)CN2C(=O)[C@@H](NC(=O)CCCCCCC(=O)N2CCN(C[C@]3(C)CCC(c4ccc(Cl)cc4)=C(CN4CCN(c5ccc(C(=O)NS(=O)(=O)c6ccc(N[C@H](CCN7CCCCC7)CSc7ccccc7)c([N+](=O)[O-])c6)cc5)CC4)C3)CC2)C(C)(C)C)cc1 [Compound 40, (2S,4R)-1-((S)-2-(8-(4-(((R)-4′-chloro-4-methyl-6-((4-(4-(((3-nitro-4-(((R)-1-(phenylthio)-4-(piperidin-1-yl)butan-2-yl)amino)phenyl)sulfonyl)carbamoyl)phenyl)piperazin-1-yl)methyl)-2,3,4,5-tetrahydro-[1,1′-biphenyl]-4-yl)methyl)piperazin-1-yl)-8-oxooctanamido)-3,3-dimethylbutanoyl)-4-hydroxy-N—((S)-1-(4-(4-methylthiazol-5-yl)phenyl)ethyl)pyrrolidine-2-carboxamide] | 
 |  | Cc1ncsc1-c1ccc([C@H](C)NC(=O)[C@@H]2C[C@@H](O)CN2C(=O)[C@@H](NC(=O)CN2C3CC2CN(CC(=O)N2CCN(CC4(C)CCC(c5ccc(Cl)cc5)=C(CN5CCN(c6ccc(C(=O)NS(=O)(=O)c7ccc(N[C@H](CCN8CCOCC8)CSc8ccccc8)c(S(=O)(=O)C(F)(F)F)c7)cc6)CC5)C4)CC2)C3)C(C)(C)C)cc1 (some centres unmarked) [Compound 31] | IC50 (MOLT-4; [5]): 0.1 to 0.5 µM; IC50 (RS4; 11; [6]): 0.1 to 0.5 µM
